Literature values, collected in patent US20150239832A1 (Neuro Pro Therapeutics, Inc., priority 2012, published 2015).

Key:
rat models of anxiety = details: Krystal et al., PLoS ONE 2012
[1] = tested on: patients with medically intractable seizures; details: intravenously administered, intraoperative
rats = details: whole animal studies in rats

| SMILES | effect on conditioned anxiety (rat models of anxiety) | effect on interictal spiking and stimulation-evoked afterdischarges of the neocortex [1] | effect on kainic acid status (rats) | potency in blocking epileptiform activity (focal bicuculline or 4-AP) and stimulation-evoked afterdischarges (primate cortex) | affinity for NKCC1 relative to KCC2 (NKCC1 over KCC2) |
| --- | --- | --- | --- | --- | --- |
| NS(=O)(=O)c1cc(C(=O)O)c(NCc2ccco2)cc1Cl [furosemide] | significantly reduce conditioned anxiety | blocked spontaneously occurring interictal spiking and stimulation-evoked afterdischarges | – | – | – |
| CCCCNc1cc(C(=O)O)cc(S(N)(=O)=O)c1Oc1ccccc1 [bumetanide] | significantly reduce conditioned anxiety | – | more potent than furosemide | more potent than furosemide | significantly greater affinity for NKCC1 over KCC2 |
